Assay results as given in patent US9072742B2, “Method of predicting a predisposition to QT prolongation” (Vanda Pharmaceuticals, Inc., priority 2009, dated 2015).
“And” between values parts separate entries of the source, which are not always exact repeats. Identical values can stand only once.

System: individuals genotyped at the rs1083338 locus (BAI3 gene)
Assay: QT prolongation (change in QTc, Fridericia) after oral iloperidone for two weeks, by rs1083338 genotype
Assay type: in vivo, human
Details: for Odds Ratio: GG vs non-GG at rs1083338, iloperidone 24 mg/day; for High QT +test (number of individuals) / Low QT +test (number of individuals) / High QT −test (number of individuals) / Low QT −test (number of individuals): iloperidone 24 mg/day B.I.D. oral; for High QT +test (number of individuals) / Low QT +test (number of individuals): GG genotype at rs1083338; for High QT −test (number of individuals) / Low QT −test (number of individuals): genotype other than GG at rs1083338
Procedure: Since the QT interval changes with changes in heart rate, the QT interval is often measured as a corrected QT (QTc) interval. Any number of formulas may be employed to calculate the QTc, including, for example, the Fridericia formula (QTcF), the Bazett formula (QTcB), and the Rautaharju formula (QTp), among others. In the studies described herein, QT was calculated using the Fridericia formula. However, the present invention includes the use of any such formula or method for calculating a QTc or an uncorrected QT. Using the genotypes at the SNP loci above, it is possible, with a high degree of certainty, to predict an individual's predisposition to QT prolongation.

With COc1cc(C(C)=O)ccc1OCCCN1CCC(c2noc3cc(F)ccc23)CC1 [iloperidone, 1-[4-[3-[4-(6-fluoro-1,2-benzisoxazol-3-yl)-1-piperidinyl]propoxy]-3-methoxyphenl]ethanone] the “Odds Ratio” value (Change threshold QT > 5 msec) was 4.21, the “High QT +test (number of individuals)” value (Change threshold QT > 5 msec) was 39 and the “Low QT +test (number of individuals)” value (Change threshold QT > 5 msec) was “seven and 7”. For the same compound, the “High QT −test (number of individuals)” value (Change threshold QT > 5 msec) was 78, the “Low QT −test (number of individuals)” value (Change threshold QT > 5 msec) was 59 and the “Odds Ratio” value (Change threshold QT > 15 msec) was 3.61. The “High QT +test (number of individuals)” value (Change threshold QT > 15 msec) was 29, the “Low QT +test (number of individuals)” value (Change threshold QT > 15 msec) was 17 and the “High QT −test (number of individuals)” value (Change threshold QT > 15 msec) was 44. The “Low QT −test (number of individuals)” value (Change threshold QT > 15 msec) was 93, the “Odds Ratio” value (Change threshold QT > 30 msec) was 3.84 and the “High QT +test (number of individuals)” value (Change threshold QT > 30 msec) was 14. For the same compound, the “Low QT +test (number of individuals)” value (Change threshold QT > 30 msec) was 32, the “High QT −test (number of individuals)” value (Change threshold QT > 30 msec) was 14 and the “Low QT −test (number of individuals)” value (Change threshold QT > 30 msec) was 123.
